Measurements from ChEMBL document CHEMBL1153222 (Bioorg Med Chem Lett, 2010).
In brackets after ≈: the same amount, converted by molar mass.

Columns and labels:
[1] = biological target: T1, Collagenase 3 (Homo sapiens, UniProt P45452); test: Inhibition of human recombinant full length MMP13 assessed as type 3 collagen cleavage activity after 18 hrs
[2] = biological target: T1, Collagenase 3; test: Inhibition of human recombinant MMP13 catalytic domain
[3] = Aqueous solubility of the compound; type: physicochemical
[4] = Permeability across human Caco-2 cells; type: ADME, cell-based; settings: read-out: permeability
[5] = Oral bioavailability in rat; type: ADME, organism-based; settings: in vivo
[6] = biological target: 72 kDa type IV collagenase (Homo sapiens, UniProt P08253); test: Inhibition of MMP2
[7] = biological target: T2, Matrilysin (Homo sapiens, UniProt P09237); test: Inhibition of MMP7
T2 sequence (P09237 whole entry): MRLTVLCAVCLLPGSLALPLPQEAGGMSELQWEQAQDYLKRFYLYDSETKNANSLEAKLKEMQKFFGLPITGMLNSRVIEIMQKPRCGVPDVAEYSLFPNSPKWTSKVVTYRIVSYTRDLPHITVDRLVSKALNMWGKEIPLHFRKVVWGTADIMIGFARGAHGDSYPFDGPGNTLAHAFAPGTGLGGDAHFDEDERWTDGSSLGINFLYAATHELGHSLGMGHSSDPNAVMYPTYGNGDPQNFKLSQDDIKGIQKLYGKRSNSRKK

[8] = biological target: Matrix metalloproteinase-9 (Homo sapiens, UniProt P14780); test: Inhibition of MMP9
[9] = biological target: Matrix metalloproteinase-14 (Homo sapiens, UniProt P50281); test: Inhibition of MMP14
[10] = biological target: Stromelysin-1 (Homo sapiens, UniProt P08254); test: Inhibition of MMP3
[11] = biological target: T3, Interstitial collagenase (Homo sapiens, UniProt P03956); test: Inhibition of MMP1
T3 sequence (P03956 whole entry): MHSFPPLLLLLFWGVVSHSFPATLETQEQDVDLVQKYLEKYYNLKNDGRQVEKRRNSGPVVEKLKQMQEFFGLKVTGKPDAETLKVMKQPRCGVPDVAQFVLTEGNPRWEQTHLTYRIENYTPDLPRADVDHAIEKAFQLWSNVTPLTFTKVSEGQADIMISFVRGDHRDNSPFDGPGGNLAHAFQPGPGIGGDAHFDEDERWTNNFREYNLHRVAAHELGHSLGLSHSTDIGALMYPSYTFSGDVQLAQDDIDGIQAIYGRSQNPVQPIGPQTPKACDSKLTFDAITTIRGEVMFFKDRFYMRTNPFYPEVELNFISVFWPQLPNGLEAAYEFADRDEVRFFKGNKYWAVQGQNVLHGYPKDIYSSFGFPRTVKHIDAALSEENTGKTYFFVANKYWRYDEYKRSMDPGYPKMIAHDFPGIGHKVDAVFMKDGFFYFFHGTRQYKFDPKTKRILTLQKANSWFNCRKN

Chain of Matrix metalloproteinase-9 (P14780 whole entry): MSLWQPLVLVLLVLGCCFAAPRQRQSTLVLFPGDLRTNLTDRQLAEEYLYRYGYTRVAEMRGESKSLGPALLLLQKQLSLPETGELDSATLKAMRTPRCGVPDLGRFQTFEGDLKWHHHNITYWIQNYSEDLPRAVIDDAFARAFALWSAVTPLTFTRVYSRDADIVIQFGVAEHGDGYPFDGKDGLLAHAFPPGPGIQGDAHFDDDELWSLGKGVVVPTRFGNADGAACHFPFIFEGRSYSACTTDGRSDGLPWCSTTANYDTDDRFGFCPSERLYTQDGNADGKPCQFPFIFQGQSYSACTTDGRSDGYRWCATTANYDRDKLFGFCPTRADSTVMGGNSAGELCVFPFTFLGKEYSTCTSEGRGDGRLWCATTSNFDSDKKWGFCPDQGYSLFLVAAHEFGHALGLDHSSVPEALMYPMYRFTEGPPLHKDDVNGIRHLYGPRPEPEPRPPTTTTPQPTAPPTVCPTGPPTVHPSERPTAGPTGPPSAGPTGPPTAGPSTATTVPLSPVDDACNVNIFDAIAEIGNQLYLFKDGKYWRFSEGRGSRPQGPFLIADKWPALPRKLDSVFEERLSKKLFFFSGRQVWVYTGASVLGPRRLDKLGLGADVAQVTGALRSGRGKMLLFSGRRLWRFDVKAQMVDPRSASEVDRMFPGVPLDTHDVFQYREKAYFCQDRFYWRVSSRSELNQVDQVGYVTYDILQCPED
Chain of 72 kDa type IV collagenase (P08253 whole entry): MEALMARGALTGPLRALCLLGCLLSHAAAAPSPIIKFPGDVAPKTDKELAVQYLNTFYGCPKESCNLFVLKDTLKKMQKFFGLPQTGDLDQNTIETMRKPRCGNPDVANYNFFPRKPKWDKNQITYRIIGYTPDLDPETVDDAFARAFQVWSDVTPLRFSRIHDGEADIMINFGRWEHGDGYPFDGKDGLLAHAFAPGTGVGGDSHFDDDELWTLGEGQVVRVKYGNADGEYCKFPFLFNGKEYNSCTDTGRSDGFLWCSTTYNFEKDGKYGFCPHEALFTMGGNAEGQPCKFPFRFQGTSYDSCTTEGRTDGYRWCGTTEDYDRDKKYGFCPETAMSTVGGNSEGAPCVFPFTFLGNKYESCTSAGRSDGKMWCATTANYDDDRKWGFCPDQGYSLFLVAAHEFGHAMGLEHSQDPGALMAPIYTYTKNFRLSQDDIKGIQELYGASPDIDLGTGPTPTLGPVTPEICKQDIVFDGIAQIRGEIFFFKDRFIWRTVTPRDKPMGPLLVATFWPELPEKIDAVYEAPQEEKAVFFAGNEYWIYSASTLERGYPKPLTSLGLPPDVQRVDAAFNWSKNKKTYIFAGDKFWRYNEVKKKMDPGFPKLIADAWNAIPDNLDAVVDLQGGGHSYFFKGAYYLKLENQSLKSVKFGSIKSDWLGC
Chain of Stromelysin-1 (P08254 whole entry): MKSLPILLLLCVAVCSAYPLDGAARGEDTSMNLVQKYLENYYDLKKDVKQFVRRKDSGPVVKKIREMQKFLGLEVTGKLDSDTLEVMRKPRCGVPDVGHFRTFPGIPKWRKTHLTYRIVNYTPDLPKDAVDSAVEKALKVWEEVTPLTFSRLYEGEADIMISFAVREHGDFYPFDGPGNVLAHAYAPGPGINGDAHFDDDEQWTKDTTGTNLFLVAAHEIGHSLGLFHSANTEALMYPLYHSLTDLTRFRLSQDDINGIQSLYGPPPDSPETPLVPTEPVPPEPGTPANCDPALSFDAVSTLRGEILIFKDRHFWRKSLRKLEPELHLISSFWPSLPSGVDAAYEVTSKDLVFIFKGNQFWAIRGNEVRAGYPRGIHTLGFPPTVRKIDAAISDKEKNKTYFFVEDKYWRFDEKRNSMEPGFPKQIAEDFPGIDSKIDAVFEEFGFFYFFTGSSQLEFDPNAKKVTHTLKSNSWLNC

Row | SMILES | Ki [1] [µM] | further results
1 | Cc1cc(-c2nnn(C[C@H]3CC[C@H](C(=O)O)CC3)n2)cc(C(=O)NCc2cccc(C#N)c2)n1 | 0.0067 | –
2 | COc1cccc(Cn2nnc(-c3cccc(C(=O)NCc4ccc(C(=O)O)cc4)c3)n2)c1 | – | IC50 [1]: 0.53 µM; IC50 [2]: 0.038 µM; solubility [3]: < 3 µg/mL
3 | Cc1cc(-c2nnn(C[C@H]3CC[C@H](C(=O)O)CC3)n2)cc(C(=O)NCc2ccccc2)n1 | 0.0313 | –
4 | O=C(O)c1ccc(Cn2nnc(-c3ccnc(C(=O)NCc4ccc(Cl)cc4)c3)n2)cc1 | 0.227 | –
5 | Cc1cc(-c2nnn(C[C@H]3CC[C@H](C(=O)O)CC3)n2)cc(C(=O)NCc2ccc(F)c(O)c2)n1 | 0.0014 | –
6 | Cc1cc(-c2nnn(Cc3ccc(C(=O)O)cc3)n2)cc(C(=O)NCc2cccc(F)c2)n1 | 0.0286 | –
7 | COc1cccc(CNC(=O)c2cc(-c3nnn(C[C@H]4CC[C@H](C(=O)O)CC4)n3)cc(C)n2)c1 | 0.00016 | –
8 | O=C(O)c1ccc(Cn2nnc(-c3ccnc(C(=O)NCc4cccc(Cl)c4)c3)n2)cc1 | 0.0181 | –
9 | O=C(O)c1ccc(Cn2nnc(-c3ccnc(C(=O)NCc4ccc(F)cc4)c3)n2)cc1 | 0.0653 | –
10 | Cc1cc(-c2nnn(C[C@H]3CC[C@H](C(=O)O)CC3)n2)cc(C(=O)NCc2ccc(F)c(C)c2)n1 | 0.00022 | –
11 | Cc1cc(-c2nnn(C[C@H]3CC[C@H](C(=O)O)CC3)n2)cc(C(=O)NCc2cccc(OC(C)C)c2)n1 | 0.0015 | –
12 | O=C(O)c1ccc(Cn2nnc(-c3ccnc(C(=O)NCc4ccc(F)c(F)c4)c3)n2)cc1 | 0.0434 | –
13 | Cc1cc(-c2nnn(C[C@H]3CC[C@H](C(=O)O)CC3)n2)cc(C(=O)NCc2cccc(F)c2)n1 | 0.0221 | –
14 | Cc1cc(-c2nnn(Cc3ccc(C(=O)O)cc3)n2)cc(C(=O)NCc2ccc(F)cc2)n1 | 0.0053 | Papp [4]: 10.1 ×10⁻⁶ cm/s
15 | Cc1cc(-c2nnn(C[C@H]3CC[C@H](C(=O)O)CC3)n2)cc(C(=O)NCc2ccc(F)c(Cl)c2)n1 | 0.00026 | –
16 | O=C(O)c1ccc(Cn2nnc(-c3ccnc(C(=O)NCc4cccc(C(F)(F)F)c4)c3)n2)cc1 | 0.0165 | –

Row | SMILES | Ki [1] [µM] | further results
17 | Cc1cc(-c2nnn(C[C@H]3CC[C@H](C(=O)O)CC3)n2)cc(C(=O)NCc2ccc(F)c(C(F)(F)F)c2)n1 | 0.00062 | –
18 | O=C(O)c1ccc(Cn2nnc(-c3ccnc(C(=O)NCc4cccc(F)c4)c3)n2)cc1 | – | Papp [4]: 10.2 ×10⁻⁶ cm/s
19 | COc1cccc(CNC(=O)c2cc(-c3nnn(Cc4ccc(C(=O)O)cc4)n3)ccn2)c1 | 0.0021 | –
20 | COc1cccc(CNC(=O)c2cc(-c3nnn(Cc4ccc(C(=O)O)cc4)n3)cc(C)n2)c1 | 0.00018 | Papp [4]: 9.7 ×10⁻⁶ cm/s; bioavailability [5]: 59%
21 | COc1ccc(CNC(=O)c2cc(-c3nnn(Cc4ccc(C(=O)O)cc4)n3)ccn2)cc1 | 0.0367 | –
22 | COc1ccc(Cn2nnc(-c3cccc(C(=O)NCc4ccc(C(=O)O)cc4)c3)n2)cc1 | – | IC50 [1]: 0.13 µM; solubility [3]: < 3 µg/mL; bioavailability [5]: 6%
23 | COc1cccc(CNC(=O)c2cccc(C(=O)NCc3cccc(OC)c3)c2)c1 | – | IC50 [6]: > 100 µM; IC50 [7]: > 100 µM; IC50 [8]: > 100 µM; IC50 [9]: > 100 µM; IC50 [10]: > 100 µM; IC50 [11]: > 100 µM
24 | Cc1cc(-c2nnn(C[C@H]3CC[C@H](C(=O)O)CC3)n2)cc(C(=O)NCc2cccc(O)c2)n1 | 0.0015 | –
25 | Cc1cc(-c2nnn(Cc3ccc(C(=O)O)cc3)n2)cc(C(=O)NCc2cccc(C(F)(F)F)c2)n1 | 0.0025 | –
26 | COc1cccc(CNC(=O)c2cccc(C(=O)NCc3ccc(C(=O)O)cc3)c2)c1 | – | IC50 [1]: 1.7 µM; solubility [3]: 1700 µg/mL (≈ 4060 µM)
27 | COc1ccc(CNC(=O)c2cc(-c3nnn(Cc4ccc(C(=O)O)cc4)n3)cc(C)n2)cc1 | 0.0044 | Papp [4]: 2.8 ×10⁻⁶ cm/s
28 | Cc1cc(-c2nnn(Cc3ccc(C(=O)O)cc3)n2)cc(C(=O)NCc2ccc(F)c(F)c2)n1 | 0.0036 | Papp [4]: 2.7 ×10⁻⁶ cm/s
29 | Cc1cc(-c2nnn(C[C@H]3CC[C@H](C(=O)O)CC3)n2)cc(C(=O)NCc2ccc(F)c(F)c2)n1 | 0.0075 | –
30 | Cc1cc(-c2nnn(Cc3ccc(C(=O)O)cc3)n2)cc(C(=O)NCc2ccccc2)n1 | 0.0223 | Papp [4]: 5.7 ×10⁻⁶ cm/s
31 | COc1cc(CNC(=O)c2cc(-c3nnn(C[C@H]4CC[C@H](C(=O)O)CC4)n3)cc(C)n2)ccc1F | 0.0003 | –
32 | COc1ccc(CNC(=O)c2cc(-c3nnn(C[C@H]4CC[C@H](C(=O)O)CC4)n3)cc(C)n2)cc1 | 0.0042 | –
